# Measured values from patent US9676691B2, “Method for producing indanone derivatives” (SYMRISE AG, priority 2011, dated 2017).
# Key:
# [1] = Examination of the crystallisation in emulsion; assay type: physicochemical; settings: with respect to the entire mass of the cosmetic formulation (0.025% by weight)
# Text: According to the indications in the following Table 1, two cosmetic formulations were produced as emulsions [E(I) and E (II)]. The product from example 1a contained pure 2-benzylidene-3,3-dimethyl-5,6-dimethoxy-1-indanone and was used in the emulsion E(I). For the emulsion E(II), 2-benzylidene-3,3-dimethyl-5,6-dimethoxy-1-indanone from example 1a was used, but it was contaminated with benzyl-3,3-dimethyl-5,6-dimethoxy-1-indanone in such a manner that a 5% by weight contamination was present, with respect to the total mass of the contaminated product.
# The emulsions were covered and left to stand at ambient temperature for 3 days. Subsequently, the emulsions were examined under a microscope. Emulsion E(I) had no crystals. In emulsion E(II), crystal seeds having a size of from 4 to 7 μm were able to be observed.
# [2] = Solubility in cosmetic oils; assay type: physicochemical; settings: in contrast to the target product
smiles,measurement,setting,value
"COc1cc2c(cc1OC)C(C)(C)C(Cc1ccccc1)C2=O (centres unmarked) [2-benzyl-3,3-dimethyl-5,6-dimethoxy-1-indanone]",proportion of by-product that initiates the formation of crystallisation seeds in the cosmetic formulation,[1],250 ppm
same,solubility in cosmetic oils,[2],cannot be readily dissolved in cosmetic oils
